Test results published in patent US12559506B2, “Indazole based compounds and associated methods of use” (Arvinas Operations, Inc., priority 2021, dated 2026).
Like-named read-outs stand apart in the source and are kept apart here.

Molecular target: T1, LRRK2 (endogenous, HiBit tagged) (Homo sapiens, UniProt Q5S007)
T1 construct: endogenous in cells; host or cells: HEK293 cells with HiBit knock-in at the endogenous LRRK2 locus, stably expressing firefly luciferase
Assay: Endogenous LRRK2 degradation assay, endogenous gene C-terminally HiBit-tagged in HEK293 cells (Nano-Glo Dual Luciferase)
Format: cell-based
Excerpt: Exemplary Assay for Testing LRRK2 Degradation Driven by Exemplary Hetero-Bifunctional Compounds Designed to Target LRRK2
The assay measures the degradation of LRRK2 in cells where the C-terminus (3′) of the endogenous gene has been tagged with a HiBit sequence in HEK293 cells. The cells also express firefly luciferase, expressed from a Cytomegalovirus promoter and introduced into the HiBit tagged cells and stably expressed. The Nano-Glo® Dual Luciferase Reporter Assay System (Promega™, Madison, WI) was utilized.
Day 1—Preparation of Compound and Assay Plates. Two sets of plates were prepared: a triplicate set for the HiBit assay in white 384-well plates and a triplicate set of plate in black 384-well plates for the Alamar Blue cell viability assay. Briefly, the growth media (DMEM+Glutamax-10% fetal bovine serum-1% Penicillin-Streptomicin) from two T128 flasks was aspirated from the flasks. Cells were washed with Dulbecco's Phosphate Buffered Saline (dPBS) and aspirated. Trypsin (3 mL per flask) was added and the flasks were incubated for 2-3 minutes.
Ten mL of OptiMEM-10% fetal bovine-1% penicillin-streptomycin (hereinafter, “OptiMEM media”) was added to the flask and the cells and transferred to a 50 mL conical tube. A cell count (25 ul of cell into Effendorf vial+25 ul of Trypan Blue Stain) was performed and the cell density adjusted to 15,000 cell/45 μl/well (3.33×10^5/mL) in OptiMEM media.
Fourty-five microliters of the cell suspension (15,000 cells) was aliquoted to each well of the white 384-well plate. The plates incubated at room temperature for 10 minutes before being placed in the 37° C.+5% CO2 incubator overnight
Day 2—Compound Treatment. Exemplary compounds were prepared at a 1 mM starting concentration and 1:3 serial dilution for 11 points CRC prepared and stored in the freezer. The Master Compound Plate was thawed overnight at room temperature. DMSO (20 μL) was added into column 24 of the Master Compound Plate for negative control and 20 μL of 300 μM of Compound 4 in column 23 as positive control.
Intermediate Compound Plate with 4% DMSO in OptiMEM Media. DMSO was added to warm OptiMEM media to achieve a 4% DMSO solution (approximately 50 mL/plate). One-hundred microliters of the OptiMEM-4% DMSO was aliquoted to each well of 384-Well Deep Well Microplates.
The Master Compound Plate and the Intermediate Compound Plate were spun down.
One microliter of compound from the Master Compound Plate was transferred into the Intermediate plate (a 1:100 dilution). The diluted mixture was mixed and 5 μL transferred into the assay plate (a 1:10 dilution) for the final starting concentration of 1 μM. The Treated Assay plates were incubated for 24 hours at 37° C.+5% CO2. The Master Compound Plate was sealed and store at room temperature for a second run that was performed within a week.
Day 3—HiBit Assay. Five microliters of Alamar Blue was added to each well of the black 384-well plates. The plates were incubated for 2 hours in the incubator (37° C.+5% CO2) and at room temperature for one hour. Fluorescence of each plate was read on a plated reader for the Alamar Blue viability assay.
One set of white assay plates was warmed to room temperature (45 minute).
The One Glo luciferase mixture was prepared. The media from white 384-well assay plates was aspirated. Twenty-five μL of the One Glo luciferase mixture was added to each well of the assay plates. The plates were incubated on the bench (room temperature) for 45 minutes, including 10 minutes of shaking at 700 rpm. The luminescence of each plate was read on a plate reader.
1:100 DLR substrate and 1:100 LgBiT Protein dilution were added to the Promega Stop and Glo buffer and mixed just before addition to assay plates. Twenty-five microliters of Stop and Glo mixture was added to each well. Assay plates incubated for at least 45 minutes, including 10 minutes of shaking at 700 rpm. The luminescence of each plate was read on a plate reader.
Analysis of LRRK2 HiBit Screening assays. […]

[1] = endogenous HiBit-tagged LRRK2 in HEK293 cells, 24 hours treatment, read-out: Endogenous WT DC50
[2] = endogenous HiBit-tagged LRRK2 in HEK293 cells, 24 hours treatment, read-out: Endogenous WT Dmax
[3] = endogenous HiBit-tagged LRRK2 in HEK293 cells, 24 hours treatment, read-out: **Endogenous WT Dmax (%)
[4] = endogenous HiBit-tagged LRRK2 in HEK293 cells, 24 hours treatment, read-out: *Endogenous WT DC50

T1 sequence (Q5S007 whole entry): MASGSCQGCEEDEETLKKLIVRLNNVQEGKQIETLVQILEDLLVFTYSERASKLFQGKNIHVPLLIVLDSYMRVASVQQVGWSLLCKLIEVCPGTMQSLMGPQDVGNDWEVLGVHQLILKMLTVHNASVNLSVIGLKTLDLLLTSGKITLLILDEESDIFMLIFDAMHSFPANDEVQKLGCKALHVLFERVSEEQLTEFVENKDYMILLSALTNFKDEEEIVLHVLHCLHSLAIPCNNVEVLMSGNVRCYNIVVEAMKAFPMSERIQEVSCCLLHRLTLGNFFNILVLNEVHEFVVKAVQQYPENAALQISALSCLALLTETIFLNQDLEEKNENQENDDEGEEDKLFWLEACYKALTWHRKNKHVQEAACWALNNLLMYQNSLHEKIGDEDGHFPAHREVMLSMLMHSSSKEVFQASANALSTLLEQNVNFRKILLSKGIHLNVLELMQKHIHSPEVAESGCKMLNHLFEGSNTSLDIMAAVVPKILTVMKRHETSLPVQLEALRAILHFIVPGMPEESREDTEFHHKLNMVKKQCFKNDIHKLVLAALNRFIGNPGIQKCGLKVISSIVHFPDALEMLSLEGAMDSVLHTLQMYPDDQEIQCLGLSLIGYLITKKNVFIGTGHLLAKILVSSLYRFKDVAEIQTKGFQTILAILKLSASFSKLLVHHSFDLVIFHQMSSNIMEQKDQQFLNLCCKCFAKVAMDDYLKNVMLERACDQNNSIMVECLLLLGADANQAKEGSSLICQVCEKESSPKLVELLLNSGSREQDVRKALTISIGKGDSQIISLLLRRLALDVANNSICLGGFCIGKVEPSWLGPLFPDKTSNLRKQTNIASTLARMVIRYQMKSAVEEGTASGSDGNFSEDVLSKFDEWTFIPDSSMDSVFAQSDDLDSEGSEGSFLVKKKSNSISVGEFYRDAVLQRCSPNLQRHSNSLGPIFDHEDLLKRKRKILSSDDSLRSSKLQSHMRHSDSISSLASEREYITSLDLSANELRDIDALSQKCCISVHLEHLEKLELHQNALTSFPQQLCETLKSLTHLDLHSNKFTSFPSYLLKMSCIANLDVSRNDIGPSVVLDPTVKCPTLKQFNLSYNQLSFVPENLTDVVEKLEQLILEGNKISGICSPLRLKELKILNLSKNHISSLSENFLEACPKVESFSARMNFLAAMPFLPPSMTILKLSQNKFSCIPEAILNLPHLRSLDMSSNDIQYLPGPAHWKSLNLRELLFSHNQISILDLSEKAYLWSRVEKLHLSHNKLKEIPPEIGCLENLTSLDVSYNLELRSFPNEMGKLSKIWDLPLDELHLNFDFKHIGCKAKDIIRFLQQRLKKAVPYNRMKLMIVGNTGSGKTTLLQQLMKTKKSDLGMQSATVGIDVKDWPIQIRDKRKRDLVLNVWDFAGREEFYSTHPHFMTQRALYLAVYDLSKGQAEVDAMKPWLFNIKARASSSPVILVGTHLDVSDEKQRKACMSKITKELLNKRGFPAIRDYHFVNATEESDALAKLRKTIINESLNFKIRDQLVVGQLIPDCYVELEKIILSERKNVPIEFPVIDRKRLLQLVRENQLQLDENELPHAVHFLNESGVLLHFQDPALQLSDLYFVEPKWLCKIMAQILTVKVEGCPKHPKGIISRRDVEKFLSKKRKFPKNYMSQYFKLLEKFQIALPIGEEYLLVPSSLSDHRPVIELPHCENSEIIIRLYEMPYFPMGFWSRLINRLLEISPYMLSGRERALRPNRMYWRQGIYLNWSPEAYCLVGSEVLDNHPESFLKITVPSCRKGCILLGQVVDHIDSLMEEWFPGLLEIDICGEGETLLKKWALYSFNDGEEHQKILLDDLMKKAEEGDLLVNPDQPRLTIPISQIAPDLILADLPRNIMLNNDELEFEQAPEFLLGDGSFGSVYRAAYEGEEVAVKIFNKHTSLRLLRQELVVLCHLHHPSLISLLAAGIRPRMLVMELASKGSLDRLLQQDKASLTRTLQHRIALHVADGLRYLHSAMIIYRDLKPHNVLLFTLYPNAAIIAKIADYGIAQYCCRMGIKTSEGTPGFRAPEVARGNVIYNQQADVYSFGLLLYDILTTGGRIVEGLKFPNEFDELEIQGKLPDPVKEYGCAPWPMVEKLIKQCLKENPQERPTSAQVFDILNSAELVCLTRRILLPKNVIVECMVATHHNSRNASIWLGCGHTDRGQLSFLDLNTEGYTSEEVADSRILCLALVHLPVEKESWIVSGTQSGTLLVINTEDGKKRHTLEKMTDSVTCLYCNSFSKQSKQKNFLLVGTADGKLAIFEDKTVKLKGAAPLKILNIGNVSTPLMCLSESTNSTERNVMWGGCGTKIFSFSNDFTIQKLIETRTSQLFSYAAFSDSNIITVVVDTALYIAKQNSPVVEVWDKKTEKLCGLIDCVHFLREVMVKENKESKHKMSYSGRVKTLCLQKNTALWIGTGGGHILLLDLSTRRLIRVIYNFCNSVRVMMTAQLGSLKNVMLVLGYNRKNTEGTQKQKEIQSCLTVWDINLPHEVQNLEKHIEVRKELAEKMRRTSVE

Row | Compound | DC50 [1] | Dmax [2] | Dmax [3] | DC50 [4] | other results
1 | CC1(Oc2cc3c(-c4cc(N5CCC(CN6CCC(F)(CN7CCN(c8ccc9c(c8F)CN(C8CCC(=O)NC8=O)C9=O)CC7)CC6)CC5)ncn4)n[nH]c3cc2F)CC1 (centres unmarked) [Compound 199, 3-{4-fluoro-5-[4-({4-fluoro-1-[(1-{6-[6-fluoro-5-(1-methylcyclopropoxy)-1H-indazol-3-yl]pyrimidin-4-yl}piperidin-4-yl)methyl]piperidin-4-yl}methyl)piperazin-1-yl]-1-oxo-2,3-dihydro-1H-isoindol-2-yl}piperidine-2,6-dione] |  |  |  |  | Dmax (endogenous HiBit-tagged LRRK2, HEK293 cells, 24 hours, read-out: **Endogenous WT Dmax (%)): ≥ 70%; DC50 (endogenous HiBit-tagged LRRK2, HEK293 cells, 24 hours, read-out: *Endogenous WT DC50): < 10 nM
2 | CC1(Oc2ccc3n[nH]c(-c4cc(N5CCC(O[C@H]6CC[C@H](CN7CCN(c8cc9c(cc8F)C(=O)N(C8CCC(=O)NC8=O)C9)CC7)CC6)CC5)ncn4)c3c2)CC1 (some centres unmarked) [Compound 208, 3-[6-fluoro-5-[4-[[4-[[1-[6-[5-(1-methylcyclopropoxy)-2H-indazol-3-yl]pyrimidin-4-yl]-4-piperidyl]oxy]cyclohexyl]methyl]piperazin-1-yl]-1-oxo-isoindolin-2-yl]piperidine-2,6-dione] | < 10 nM | 50 to 70% |  |  | 
3 | CC1(Oc2ccc3[nH]nc(-c4cc(N5CCC(O[C@H]6CC[C@H](CN7CCN(c8ccc9c(c8Cl)CN(C8CCC(=O)NC8=O)C9=O)CC7)CC6)CC5)ncn4)c3c2)CC1 (some centres unmarked) [Compound 249, 3-[4-chloro-1-oxo-5-(4-{[(1r,4r)-4-[(1-{6-[5-(1-methylcyclopropoxy)-1H-indazol-3-yl]pyrimidin-4-yl}piperidin-4-yl)oxy]cyclohexyl]methyl}piperazin-1-yl)-2,3-dihydro-1H-isoindol-2-yl]piperidine-2,6-dione] | < 10 nM | 50 to 70% |  |  | 
4 | COc1c(N2CCC(CN3CCN(CC4CCN(c5cc(-c6n[nH]c7cnc(OC8(C)CC8)cc67)ncn5)CC4)[C@@H](C)C3)CC2)ccc2c1CN(C1CCC(=O)NC1=O)C2=O (stereo partly drawn) [Compound 282, 3-[4-methoxy-5-(4-{[(3S)-3-methyl-4-[(1-{6-[5-(1-methylcyclopropoxy)-1H-pyrazolo[3,4-c]pyridin-3-yl]pyrimidin-4-yl}piperidin-4-yl)methyl]piperazin-1-yl]methyl}piperidin-1-yl)-1-oxo-2,3-dihydro-1H-isoindol-2-yl]piperidine-2,6-dione] |  |  | ≥ 70% | < 10 nM | 

Further lines, with some results ahead:

Row | DC50 [1] | Dmax [2] | Dmax [3] | DC50 [4] | Compound | other results
5 |  |  | ≥ 70% | < 10 nM | COc1c(N2CCC(CN3[C@H](C)CN(CC4CCN(c5cc(-c6n[nH]c7ccc(OC8(C)CC8)cc67)ncn5)CC4)C[C@@H]3C)CC2)ccc2c1CN(C1CCC(=O)NC1=O)C2=O (stereo partly drawn) [Compound 288, 3-[5-(4-{[(2R,6S)-2,6-dimethyl-4-[(1-{6-[5-(1-methylcyclopropoxy)-1H-indazol-3-yl]pyrimidin-4-yl}piperidin-4-yl)methyl]piperazin-1-yl]methyl}piperidin-1-yl)-4-methoxy-1-oxo-2,3-dihydro-1H-isoindol-2-yl]piperidine-2,6-dione] | 
6 | < 10 nM | 50 to 70% |  |  | COc1c(N2CC3(CCN(CCN4CCN(c5cc(-c6n[nH]c7ccc(OC8(C)CC8)cc67)ncn5)CC4)CC3(F)F)C2)ccc2c1CN(C1CCC(=O)NC1=O)C2=O (centres unmarked) [Compound 363, 3-(5-{5,5-difluoro-7-[2-(4-{6-[5-(1-methylcyclopropoxy)-1H-indazol-3-yl]pyrimidin-4-yl}piperazin-1-yl)ethyl]-2,7-diazaspiro[3.5]nonan-2-yl}-4-methoxy-1-oxo-2,3-dihydro-1H-isoindol-2-yl)piperidine-2,6-dione] | 
7 |  |  | 50 to 70% | < 10 nM | COc1c(N2CCC(N3CC(OC4CCN(c5cc(-c6[nH]nc7ccc(OC8(C)CC8)cc67)ncn5)CC4)C3)CC2)ccc2c1CN(C1CCC(=O)NC1=O)C2=O (centres unmarked) [Compound 356, 3-[4-methoxy-5-(4-{3-[(1-{6-[5-(1-methylcyclopropoxy)-2H-indazol-3-yl]pyrimidin-4-yl}piperidin-4-yl)oxy]azetidin-1-yl}piperidin-1-yl)-1-oxo-2,3-dihydro-1H-isoindol-2-yl]piperidine-2,6-dione] | 
